In patent US8497278B2, “Imidazo[1,2-a]pyridine compounds” (priority 2008, dated 2013):

System: central benzodiazepine receptors
Test: Central benzodiazepine receptor binding (test of Speth et al.)
Details: 1000 nM of the compound
Outline: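 Values are percent inhibition of central benzodiazepine receptor binding at 1000 nM compound (initial single-point screen at 1.0E-09, 1.0E-07 and 1.0E-05 M). Speth et al. binding test; nonspecific binding defined with excess unlabelled ligand and subtracted from total.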

Structure (SMILES)	% Inhibition at 1000 nM for CBZD
Cc1ccc(-c2nc3ccc(C)cn3c2CNc2nc(C)cc(C)n2)cc1 [Compound 148, 4,6-dimethyl-N-((6-methyl-2-p-tolylH-imidazo[1,2-a]pyridin-3-yl)methyl)pyrimidin-2-amine]	++ (percentage of inhibition of central BZD site binding is greater than 80% in the presence of 1000 nM of the compound)
Cn1ccnc1Cc1c(-c2ccc(F)cc2)nc2ccc(F)cn12 [Compound 199, 6-fluoro-2-(4-fluorophenyl)-3-((1-methyl-1H-imidazol-2-yl)methyl)imidazo[1,2-a]pyridine]	++ (percentage of inhibition of central BZD site binding is greater than 80% in the presence of 1000 nM of the compound)
Cc1ccc(-c2nc3c(Cl)cc(Cl)cn3c2CNc2ncc[nH]2)cc1 [Compound 171, (6,8-Dichloro-2-p-tolyl-imidazo[1,2-a]pyridin-3-ylmethyl)-(1H-imidazol-2-yl)-amine]	++ (percentage of inhibition of central BZD site binding is greater than 80% in the presence of 1000 nM of the compound)
COC(=O)c1nn(Cc2c(-c3ccc(Cl)cc3)nc3ccccn23)c2ccccc12 [Compound 34, Methyl 1-((2-(4-chlorophenyl)imidazo[1,2-a]pyridin-3-yl)methyl)-1H-indazole-3-carboxylate]	+ (percentage of inhibition of central BZD site binding is greater than 50% but less than 80% in the presence of 1000 nM of the compound)
Cc1ccc(-c2nc3ccc(C)cn3c2CNc2ncc[nH]2)cc1 [Compound 153, N-((6-methyl-2-p-tolyl-H-imidazo[1,2-a]pyridin-3-yl)methyl)-1H-imidazol-2-amine]	++ (percentage of inhibition of central BZD site binding is greater than 80% in the presence of 1000 nM of the compound)
Cc1ccc(-c2nc3ccc(C)cn3c2Cn2cnc(Cl)c2Cl)cc1 [Compound 3, 3-((4,5-Dichloro-1H-imidazol-1-yl)methyl)-6-methyl-2-p-tolylH-imidazo[1,2-a]pyridine]	+ (percentage of inhibition of central BZD site binding is greater than 50% but less than 80% in the presence of 1000 nM of the compound)
Cc1ccc(-c2nc3ccc(C)cn3c2Cn2ccnc2-c2ccccc2)cc1 [Compound 13, 6-Methyl-3-((2-phenyl-1H-imidazol-1-yl)methyl)-2-p-tolylH-imidazo[1,2-a]pyridine]	+ (percentage of inhibition of central BZD site binding is greater than 50% but less than 80% in the presence of 1000 nM of the compound)
Cc1ccc(-c2nc3ccc(C)cn3c2CSc2cccs2)cc1 [Compound 178, 6-Methyl-3-(thiophen-2-ylsulfanylmethyl)-2-p-tolyl-imidazo[1,2-a]pyridine]	+ (percentage of inhibition of central BZD site binding is greater than 50% but less than 80% in the presence of 1000 nM of the compound)
CCOC(=O)c1cc(C)nn1Cc1c(-c2ccc(Cl)cc2)nc2ccccn12 [Compound 28, Ethyl 1-((2-(4-chlorophenyl)imidazo[1,2-a]pyridin-3-yl)methyl)-3-methyl-1H-pyrazole-5-carboxylate]	++ (percentage of inhibition of central BZD site binding is greater than 80% in the presence of 1000 nM of the compound)
Cc1ccc(-c2nc3ccc(C)cn3c2Cn2ncnc2C(=O)N(C)C)cc1 [Compound 70, 2-(6-Methyl-2-p-tolyl-imidazo[1,2-a]pyridin-3-ylmethyl)-2H-[1,2,4]triazole-3-carboxylic acid dimethylamide]	+ (percentage of inhibition of central BZD site binding is greater than 50% but less than 80% in the presence of 1000 nM of the compound)
Fc1ccc(-c2nc3ccc(F)cn3c2Cc2ncn[nH]2)cc1 [Compound 210, 3-((1H-1,2,4-triazol-5-yl)methyl)-6-fluoro-2-(4-fluorophenyl)imidazo[1,2-a]pyridine]	++ (percentage of inhibition of central BZD site binding is greater than 80% in the presence of 1000 nM of the compound)
O=C1C=C(N2CCCCC2)CN1Cc1c(-c2ccc(Cl)cc2)nc2ccccn12 [Compound 239, 1-((2-(4-chlorophenyl)imidazo[1,2-a]pyridin-3-yl)methyl)-4-(piperidin-1-yl)-1H-pyrrol-2(5H)-one]	++ (percentage of inhibition of central BZD site binding is greater than 80% in the presence of 1000 nM of the compound)
Cc1ccc(-c2nc3c(Cl)cc(Cl)cn3c2CNc2nc(C)cc(C)n2)cc1 [Compound 172, (6,8-Dichloro-2-p-tolyl-imidazo[1,2-a]pyridin-3-ylmethyl)-(4,6-dimethyl-pyrimidin-2-yl)-amine]	++ (percentage of inhibition of central BZD site binding is greater than 80% in the presence of 1000 nM of the compound)
Clc1ccc(-c2nc3ccccn3c2Cn2cncn2)cc1 [Compound 67, 3-((1H-1,2,4-triazol-1-yl)methyl)-2-(4-chlorophenyl)imidazo[1,2-a]pyridine]	++ (percentage of inhibition of central BZD site binding is greater than 80% in the presence of 1000 nM of the compound)
Cc1ccc(-c2nc3ccc(C)cn3c2CSc2nc[nH]n2)cc1 [Compound 177, 6-Methyl-2-p-tolyl-3-(1H-[1,2,4]triazol-3-ylsulfanylmethyl)-imidazo[1,2-a]pyridine]	+ (percentage of inhibition of central BZD site binding is greater than 50% but less than 80% in the presence of 1000 nM of the compound)
Cc1ccc2nc(-c3ccc(Cl)cc3)c(Cc3nnc(C)o3)n2c1 [Compound 203, 2-((2-(4-chlorophenyl)-6-methylimidazo[1,2-a]pyridin-3-yl)methyl)-5-methyl-1,3,4-oxadiazole]	++ (percentage of inhibition of central BZD site binding is greater than 80% in the presence of 1000 nM of the compound)
Fc1ccc(-c2nc3ccc(Cl)cn3c2CNc2nc(F)cc(F)n2)cc1 [Compound 169, N-((6-Chloro-2-(4-fluorophenyl)imidazo[1,2-a]pyridin-3-yl)methyl)-4,6-difluoropyrimidin-2-amine]	++ (percentage of inhibition of central BZD site binding is greater than 80% in the presence of 1000 nM of the compound)
Cc1ccc(-c2nc3ccc(C)cn3c2COc2cccnc2)cc1 [Compound 175, 6-Methyl-3-(pyridin-3-yloxymethyl)-2-p-tolyl-imidazo[1,2-a]pyridine]	++ (percentage of inhibition of central BZD site binding is greater than 80% in the presence of 1000 nM of the compound)
CON(C)C(=O)c1ncnn1Cc1c(-c2ccc(Cl)cc2)nc2ccc(Cl)cn12 [Compound 82, 2-[6-Chloro-2-(4-chloro-phenyl)-imidazo[1,2-a]pyridin-3-ylmethyl]-2H-[1,2,4]triazole-3-carboxylic acid methoxy-methyl-amide]	++ (percentage of inhibition of central BZD site binding is greater than 80% in the presence of 1000 nM of the compound)
CN(C)C(=O)c1ncnn1Cc1c(-c2ccc(Cl)cc2)nc2ccccn12 [Compound 74, 1-((2-(4-chlorophenyl)imidazo[1,2-a]pyridin-3-yl)methyl)-N,N-dimethyl-1H-1,2,4-triazole-5-carboxamide]	++ (percentage of inhibition of central BZD site binding is greater than 80% in the presence of 1000 nM of the compound)
c1ccc(-c2nc3ccccn3c2Cn2ccnn2)cc1 [Compound 50, 3-((1H-1,2,3-triazol-1-yl)methyl)-2-phenylH-imidazo[1,2-a]pyridine]	+ (percentage of inhibition of central BZD site binding is greater than 50% but less than 80% in the presence of 1000 nM of the compound)
O=C1OCCN1Cc1c(-c2ccc(Cl)cc2)nc2ccc(Cl)cn12 [Compound 111, 3-((6-chloro-2-(4-chlorophenyl)H-imidazo[1,2-a]pyridin-3-yl)methyl)oxazolidin-2-one]	++ (percentage of inhibition of central BZD site binding is greater than 80% in the presence of 1000 nM of the compound)
Cc1ccc(-c2nc3ccc(C)cn3c2Cn2cccc(C)c2=O)cc1 [Compound 97, 3-methyl-1-((6-methyl-2-p-tolylH-imidazo[1,2-a]pyridin-3-yl)methyl)pyridin-2(1H)-one]	++ (percentage of inhibition of central BZD site binding is greater than 80% in the presence of 1000 nM of the compound)
CC(C)(C)OC(=O)N1CCCC1c1ccnc(NCc2c(-c3ccc(F)cc3)nc3ccc(Cl)cn23)n1 (stereo not drawn) [Compound 194, Tert-butyl 2-(2-((6-chloro-2-(4-fluorophenyl)imidazo[1,2-a]pyridin-3-yl)methylamino)pyrimidin-4-yl)pyrrolidine-1-carboxylate]	+ (percentage of inhibition of central BZD site binding is greater than 50% but less than 80% in the presence of 1000 nM of the compound)
Fc1ccc2nc(-c3ccc(Cl)cc3)c(Cn3cncn3)n2c1 [Compound 55, 3-((1H-1,2,4-triazol-1-yl)methyl)-2-(4-chlorophenyl)-6-fluoroH-imidazo[1,2-a]pyridine]	++ (percentage of inhibition of central BZD site binding is greater than 80% in the presence of 1000 nM of the compound)
Clc1ccc(-c2nc3ccccn3c2Cc2cncc(OC3CCNC3)n2)cc1 (stereo not drawn) [Compound 186, 2-(4-chlorophenyl)-3-((6-(pyrrolidin-3-yloxy)pyrazin-2-yl)methyl)imidazo[1,2-a]pyridine]	++ (percentage of inhibition of central BZD site binding is greater than 80% in the presence of 1000 nM of the compound)
Cc1cccc(=O)n1Cc1c(-c2ccc(Cl)cc2)nc2ccc(Cl)cn12 [Compound 107, 1-((6-chloro-2-(4-chlorophenyl)H-imidazo[1,2-a]pyridin-3-yl)methyl)-6-methylpyridin-2(1H)-one]	++ (percentage of inhibition of central BZD site binding is greater than 80% in the presence of 1000 nM of the compound)
